Assay results published in US20110184018A1, “METHOD FOR TREATING PERIPHERAL NEUROPATHIC PAIN” (LOHOCLA RESEARCH CORPORATION, priority 2005, published 2011).
Like-named read-outs stand apart in the source and are kept apart here.

How the values were obtained:
[1] = biological target: T1, glycine recognition site of the NMDA receptor complex (Rattus norvegicus, UniProt P35439); assay: [3H]5,7-DCKA binding assay; settings: rat cortical membranes; none = no displacement at 100 μM
T1 construct: The telencephalon (cerebral cortex, hippocampus, and striatum) was dissected and homogenized; from tissue; host or cells: rat telencephalon membranes (cerebral cortex, hippocampus, striatum), Triton X-100 treated
Procedure: General receptor-binding procedures. Male Sprague-Dawley rats were decapitated and their brains removed rapidly. The telencephalon (cerebral cortex, hippocampus, and striatum) was dissected and homogenized in 20 volumes of ice-cold 0.32 M sucrose, 20 mM HEPES-KOH (pH 7.2 at room temperature) containing protease inhibitors ([…], 5 mg/mL antipain, 20 mg/mL soybean trypsin inhibitor, 500 μM benzamidine, […] aprotinin, and 500 μM phenylmethylsulfonyl fluoride) with a motor driven glass-TEFLON® fluorocarbon homogenizer (8-10 strokes at setting 1). The homogenate was centrifuged at 800 g for 10 minutes. The pellet was discarded and the supernatant was centrifuged at 20,000 g for 20 minutes. The resulting pellet was resuspended in 20 volumes of distilled water containing 500 μM benzamidine and centrifuged for 20 minutes at 7500 g. Then the supernatant and buffy coat were centrifuged three times (51,500 g for 20 minutes) in the presence of distilled water containing 500 μM benzamidine. All centrifugation steps were carried out at 4° C. The final pellet was frozen rapidly at −80° C.
On the day of the assay, the pelleted membranes were resuspended in 20 volumes of 50 mM HEPES-KOH buffer, pH 7.4, and incubated for 20 minutes at 37° C. followed by centrifugation (51,500 g for 20 minutes). Membranes were then resuspended in 50 mM HEPES-KOH buffer (pH 7.8) containing 0.08% Triton X-100. After stirring for 30 minutes at 4° C., the membranes were pelleted by centrifugation (100,000 g for 20 minutes). The membranes were then washed twice by resuspension in the buffer appropriate for the binding assay and centrifugation (100,000 g for 20 minutes). The final pellet was suspended in assay buffer. The amount of protein in the final membrane preparation was determined with the bicinchoninic acid method (BCA; Pierce Chemical Co., Rockford, Ill.). The final protein concentration used for our studies was 300 to 600 μg/mL. Receptor-binding protocols described below were adapted from published procedures. For all assays, the samples, all in duplicate or triplicate, were placed into scintillation vials containing 5.5 mL of scintillation liquid (Ultima Gold; Packard Instrument Co., Inc., Meriden, Conn.) and the retained radioactivity was determined by conventional scintillation spectroscopy with a Beckman TA-6000 scintillation counter. Radio-ligands were purchased from DuPont-NEN (Boston, Mass.).
[^3H]5,7-Dichlorokynurenic acid (5,7-DCKA)-binding assay. The glycine recognition site of the NMDA receptor complex was labeled with the competitive antagonist [^3H]5,7-dichlorokynurenic acid (5,7-DCKA). […]
Data Analysis. The data were analyzed with SigmaPlot 5.0 and SigmaStat 2.0 (Jandel Scientific, Corte Madera, Calif.) software. […]

[2] = biological target: voltage sensitive sodium channel (neurotoxin receptor Site 2); assay: [3H]BTX binding assay; settings: rat cortical synaptosomes
CB1 receptor = biological target: T2, CB1 receptor (Homo sapiens, UniProt P21554); assay: cAMP accumulation in HEK293 cells transfected with AC5, D1AR, CB1R; assay type: cell-based
T2 construct: expressed in transfected cells; host or cells: HEK293 cells (ATCC), calcium phosphate transfection
Procedure: HEK293 cells were obtained from American Type Culture Collection (Manassas, Va.). Cells were cultured in 225 mL flasks containing 39 mL of MEM containing 10% fetal bovine serum, penicillin (50 μg/mL), streptomycin (50 μg/mL), and neomycin (100 μg/mL). The flasks were maintained in a humidified atmosphere of 95% air and 5% CO2 at about 37° C. Transfection was performed by the method of DNA precipitation with calcium phosphate 1 day after HEK 293 cells were transferred to small flasks (75 mL) at the density of approximately 60 to 80% confluence. Plasmid DNA containing AC5 or AC7 cDNA (11.5 μg), plasmid DNA carrying the human D1A dopamine receptor cDNA (3 μg) and CB1 receptor cDNA (3 μg), and pCMS-EGFP (1 μg) were used for each small flask, which also contained 13 mL of the culture medium. The amount of DNA per flask was adjusted to a total of 26 μg using vector DNA. Transfection efficiency was routinely monitored by observing the expression of enhanced green fluorescent protein (GFP) by an epifluorescence microscope equipped with a filter set (excitation, 480/40 nm; emission, 535/50 nm) and a dichroic mirror (T89002bs; Chroma Technology, Rockingham, Vt.). After transfection, cells were harvested and transferred into 24-well culture plates. The transfected cells were cultured for 1 to 2 days before the cAMP accumulation experiments were carried out.
After labeling and intracellular ATP pool with 3.0 μCi/mL of [2,8-^3H]adenine, cells were incubated in DMEM (0.5 mL/well) without phenol red, buffered to pH 7.1 with 20 mM of 4-(2-hydroxyethyl)-1-piperazineethanesulfonic acid (HEPES) for 30 minutes at 37° C.
To determine the effect of the DCUK-OEt or other compounds on the function of the CB1 receptor, the cells were treated with the phosphodiesterase inhibitor, IBMX (500 μM), for 10 minutes at 37° C., followed by the addition of D1A receptor agonist, dopamine (DA) (1 μM), in the presence of a known CB1 agonist or agonist, plus a CB1 antagonist for 5 minutes. The following agonist and antagonist were used: CB1 receptor agonist, ACEA (10 μM); CB1 receptor antagonist, AM251 (10 μM). In additional reactions, the addition of DA was accompanied by addition of DCUK-OEt (10 μM) or DCUK-OEt together with AM251 (10 μM). In a final set of reactions DCUK-OEt was added with ACEA (10 μM), to assess whether DCUK-OEt acted like a CB1 receptor antagonist. The reactions were terminated by adding 50 μL of 100% (w/v) tricholoroacetic acid. ATP and cAMP were separated through Dowex 50 and neutral alumina columns as is known in the art, and quantified by liquid scintillation counting. [α-^32P]ATP and 8-[^14C]cAMP were added as internal standards to monitor the recovery of ATP and cAMP through column chromatography. Conversion of [^3H] ATP into [^3H]cAMP was calculated as follows: [^3H]cAMP (%)=[^3H]cAMP (cpm)/([^3H]ATP (cpm)+[^3H]cAMP (cpm))·100. [^3H]cAMP (%) values obtained from cells which underwent only the 10-minute IBMX incubation period before the addition of trichloroacetic acid, were used as blanks and these values were subtracted from the values obtained from cells which underwent the 1-minute incubation period with DA in the presence or absence of other agonists/antagonists. Each condition was assayed in triplicate and the whole experimental procedure was repeated 4 times. The ratio of cAMP accumulation was calculated for all treatment groups versus DA treatment group (100%) and the values were averaged among the four batches of experiments.

[3] = biological target: rat brain type IIA Na+ channel (Nav1.2) (Rattus norvegicus, UniProt P04775); assay: Whole-cell patch clamp recordings of Na+ currents in CNaIIA-1 cells; assay type: cell-based
DBA/2 mice = assay: Audiogenic seizures; assay type: in vivo, mouse; settings: i.p., 100 and 500 mg/kg
Procedure: Audiogenic Seizures. Male DBA/2J mice (20-22 days old; 8-12 g) were used to evaluate the effects of DCUK-OMe in an animal model of partial seizures. Mice were dosed (i.p.) with vehicle (5% TWEEN 80/0.5% methylcellulose), 100 mg/kg DCUK-OMe, or 500 mg/kg DCUK-OMe, 30 minutes before noise stimulation. Mice were placed into a cylindrical Plexiglas testing chamber (15×50 cm, diameter 3 height) enclosed in a sound-attenuated box. After a 15- to 20-second habituation period, a high-intensity auditory stimulus (ringing doorbell; 12-16 kHz, 109 db) was activated for 30 seconds or until tonic hindlimb extension occurred. The seizure response in these mice is characterized by a progression of a wild running behavior, followed by loss of righting and clonus of the forelimbs, followed by tonic hindlimb extension, and finally respiratory arrest.

[4] = Solubility limit in aqueous assay buffers; assay type: physicochemical; settings: aqueous assay buffers (incubation or bath solutions), aqueous buffer, kinetic from dmso stock, DMSO 0.2 to 1%, read-out: concentrations that could not be tested due to limited solubility in aqueous buffers
Procedure: Drugs. For all in vitro assays, stock solutions of DCUKA or DCUK-OMe were prepared fresh daily in dimethylsulfoxide (DMSO) then diluted into the incubation or bath solutions with sonication to the desired concentrations for experiments. Due to their limited solubility in aqueous buffers, DCUKA concentrations >300 μM and DCUK-OMe concentrations >100 μM could not be tested. In those assays where high ionic strength buffers were used, i.e., [^3H]batrachiotoxin (BTX) binding in depolarized synaptosomes, concentrations >50 μM could not be tested. The final concentration of DMSO in the assays ranged from 0.2 to 1%. In all assays, drug effects were compared with effects measured in the presence of the identical concentration of DMSO without drug.

[5] = none = no displacement at 100 μM, read-out: IC50 [3H]BTX binding

T2 sequence (P21554 whole entry): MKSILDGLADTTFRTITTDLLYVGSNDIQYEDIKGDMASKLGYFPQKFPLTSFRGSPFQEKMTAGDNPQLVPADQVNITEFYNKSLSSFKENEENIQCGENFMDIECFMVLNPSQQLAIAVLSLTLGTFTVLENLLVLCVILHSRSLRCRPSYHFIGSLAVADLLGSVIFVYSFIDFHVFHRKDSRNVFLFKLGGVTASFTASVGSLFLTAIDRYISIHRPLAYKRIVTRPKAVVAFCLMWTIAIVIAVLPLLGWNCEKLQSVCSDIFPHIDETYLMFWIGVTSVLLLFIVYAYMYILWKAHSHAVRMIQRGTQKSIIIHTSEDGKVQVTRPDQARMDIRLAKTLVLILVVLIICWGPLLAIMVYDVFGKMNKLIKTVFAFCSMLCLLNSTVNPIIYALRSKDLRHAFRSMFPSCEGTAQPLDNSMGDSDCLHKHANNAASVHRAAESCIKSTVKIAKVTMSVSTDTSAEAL
rat brain type IIA Na+ channel (Nav1.2), sequence (P04775 whole entry): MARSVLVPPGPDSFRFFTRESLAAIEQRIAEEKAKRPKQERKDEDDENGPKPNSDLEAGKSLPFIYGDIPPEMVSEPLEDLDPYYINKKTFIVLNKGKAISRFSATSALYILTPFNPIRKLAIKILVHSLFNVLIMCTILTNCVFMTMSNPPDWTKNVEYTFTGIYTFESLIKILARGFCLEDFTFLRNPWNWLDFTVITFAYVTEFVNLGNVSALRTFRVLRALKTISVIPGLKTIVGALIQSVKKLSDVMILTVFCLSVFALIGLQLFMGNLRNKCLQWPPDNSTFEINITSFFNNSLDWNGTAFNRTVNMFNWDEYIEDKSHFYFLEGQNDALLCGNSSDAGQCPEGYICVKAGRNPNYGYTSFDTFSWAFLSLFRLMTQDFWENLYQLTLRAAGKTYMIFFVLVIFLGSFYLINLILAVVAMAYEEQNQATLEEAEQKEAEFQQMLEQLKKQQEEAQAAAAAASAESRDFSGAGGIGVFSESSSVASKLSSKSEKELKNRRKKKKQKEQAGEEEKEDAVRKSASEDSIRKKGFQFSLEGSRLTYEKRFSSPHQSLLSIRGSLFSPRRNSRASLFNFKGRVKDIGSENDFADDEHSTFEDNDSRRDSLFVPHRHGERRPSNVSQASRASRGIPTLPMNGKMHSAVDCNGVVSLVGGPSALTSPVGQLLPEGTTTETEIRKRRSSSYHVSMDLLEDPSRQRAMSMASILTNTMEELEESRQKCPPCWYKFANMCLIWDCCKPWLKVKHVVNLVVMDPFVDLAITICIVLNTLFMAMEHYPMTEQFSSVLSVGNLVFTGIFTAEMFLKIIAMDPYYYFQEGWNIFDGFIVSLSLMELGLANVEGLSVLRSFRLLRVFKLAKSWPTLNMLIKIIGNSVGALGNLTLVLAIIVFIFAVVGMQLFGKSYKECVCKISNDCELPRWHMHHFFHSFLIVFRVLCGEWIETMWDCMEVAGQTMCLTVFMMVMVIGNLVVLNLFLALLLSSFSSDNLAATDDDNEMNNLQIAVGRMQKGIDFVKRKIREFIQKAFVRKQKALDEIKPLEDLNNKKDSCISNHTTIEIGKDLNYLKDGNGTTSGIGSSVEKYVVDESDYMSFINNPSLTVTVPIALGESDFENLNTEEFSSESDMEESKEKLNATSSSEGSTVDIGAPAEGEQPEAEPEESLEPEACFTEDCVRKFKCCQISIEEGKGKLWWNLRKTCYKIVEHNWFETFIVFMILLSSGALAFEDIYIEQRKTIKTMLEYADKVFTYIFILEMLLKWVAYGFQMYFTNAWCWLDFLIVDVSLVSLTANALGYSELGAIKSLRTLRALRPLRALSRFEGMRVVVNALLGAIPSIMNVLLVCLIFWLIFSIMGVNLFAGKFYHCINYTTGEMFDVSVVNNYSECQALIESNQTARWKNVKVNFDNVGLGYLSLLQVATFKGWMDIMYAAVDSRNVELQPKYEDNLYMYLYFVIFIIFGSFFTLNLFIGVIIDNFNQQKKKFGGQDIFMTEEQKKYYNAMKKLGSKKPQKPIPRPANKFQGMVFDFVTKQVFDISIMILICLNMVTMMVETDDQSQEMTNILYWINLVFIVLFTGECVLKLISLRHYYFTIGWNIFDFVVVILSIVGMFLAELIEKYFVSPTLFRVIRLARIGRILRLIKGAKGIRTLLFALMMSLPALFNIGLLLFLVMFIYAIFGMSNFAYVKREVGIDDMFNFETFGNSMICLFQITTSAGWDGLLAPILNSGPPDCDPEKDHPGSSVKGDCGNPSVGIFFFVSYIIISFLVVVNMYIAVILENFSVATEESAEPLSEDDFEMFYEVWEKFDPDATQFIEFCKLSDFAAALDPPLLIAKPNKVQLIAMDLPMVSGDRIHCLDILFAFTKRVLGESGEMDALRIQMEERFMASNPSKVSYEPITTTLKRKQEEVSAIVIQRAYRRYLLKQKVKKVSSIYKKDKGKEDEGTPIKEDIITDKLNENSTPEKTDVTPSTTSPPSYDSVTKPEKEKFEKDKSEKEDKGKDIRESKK

With O=C(O)c1cc(=O)c2c(Cl)cc(Cl)cc2[nH]1 [5,7-DCKA, 5,7-dichlorokynurenic acid, reference compound] the IC50 [1] was 0.11 µM and the “IC50 [3H]BTX binding” value ([2]; none = no displacement at 100 μM) was “none”.
With CCCCC/C=C\C/C=C\C/C=C\C/C=C\CCCC(=O)NCCCl [ACEA, reference compound] the “effect on DA stimulated cAMP production with AM251 added” value (CB1 receptor; AM251 10 μM) was “the effect of ACEA was reversed” and the “effect on DA stimulated cAMP production” value (CB1 receptor; dopamine 1 μM, compound 10 μM) was “reduced cAMP production”.
With NC(=O)N1c2ccccc2C=Cc2ccccc21 [CBZ, carbamazepine, reference compound] the “IC50 [3H]5,7-DCKA binding” value [1] was “none”, the IC50 ([2]; depolarizing conditions (135 mM KCl), read-out: IC50 [3H]BTX binding under depolarizing conditions (value in parentheses)) was 56 µM and the IC50 [2, 5] was 71 µM. For the same compound, the Kd [3] was 400 µM and the Ki [3] was 14.6 µM.
For COC(=O)c1cc(NC(=O)N(c2ccccc2)c2ccccc2)c2c(Cl)cc(Cl)cc2n1 [DCUK-OMe, N,N-diphenyl-4-ureido-5,7-dichloro-2-carboxy quinoline methyl ester], the “IC50 [3H]5,7-DCKA binding” value [1] was “none”, the IC50 [2, 5] was 25 µM and the “protection against audiogenic seizures” value (DBA/2 mice) was “protection against audiogenic seizures”. It also gave a solubility [4] of over 100 µM.
